Results on 3 compounds are retold here after patent US20260124311A1, “POLYMER-DRUG CONJUGATES FOR STING PATHWAY ACTIVATION” (Vanderbilt University, priority 2022, published 2026).

Test [1] concerns the target T1, STING (Homo sapiens, UniProt Q86WV6, G230A/H232R/R293Q/R71H).
T1 construct: host or cells: THP1-Dual cells
Description: THP1-Dual reporter assay (IRF-luciferase, Quanti-Luc) for activation of STING. Format: cell-based. The following applies: for STING activation / interferon production in THP-1 Dual reporter cells, in words: qualitative comparison of dose-response curves.
Description: Activation of STING. […] Cells were subjected to 10 μg/mL Blasticidin and 100 μg/mL Zeocin for continual selection after every cell passage. […] Reporter cells were seeded at 25,000 cells/well in 100 μL media and treatments were administered in 100 μL of medium.

In test [2] the test system is STING knockout THP1 Dual cell line. Description: STING knockout THP1 Dual cell line reporter assay. The following applies: FIG. 19C-D. In kind it is cell-based, human.
The subject of test [3] is IRF and NF-kb pathway. Description: THP-1 Dual reporter assay of IRF and NF-kb pathway activation. The following applies: FIG. 19A-B. Format: cell-based, human. How it is done:
Activation of STING. THP1-Dual cells (InvivoGen) were cultured in Roswell Park Memorial Institute (RPMI) 1640 Medium (Gibco) supplemented with 2 mM L-glutamine, 25 mM HEPES, 10% heat-inactivated fetal bovine serum (HI-FBS; Gibco), 100 U mL^−1, penicillin/100 μg mL^−1, streptomycin (Gibco), and 100 μg/mL Normocin. Cells were subjected to 10 μg/mL Blasticidin and 100 μg/mL Zeocin for continual selection after every cell passage. 96-well plates (REF 655180; Greiner Bio-One) were used for screening agonist activity. Reporter cells were seeded at 25,000 cells/well in 100 μL media and treatments were administered in 100 μL of medium. Results were collected 24 hours after treatment using a Quanti-Luc™ (InvivoGen) assay on cell supernatants following manufacturer's instructions. Luminescence was quantified using a plate reader (Synergy H1 Multi-Mode Microplate Reader; Biotek) after supernatants were transferred to opaque-bottom 96-well plates (REF 655073; Greiner Bio-One).

Test [4] concerns GFP-STING expressing murine embryonic fibroblasts. The following applies: FIG. 21.
The test system of test [5] is Interferon-β, CXCL10, TNF, IL-6. In words: PCR analysis of kinetics of STING-mediated gene expression. In kind it is cell-based.
Test [6] relates to THP-1 Dual cells. Description: Cellular uptake by flow cytometry at 37° C. and 4° C. Format: cell-based, human. The following applies: FIG. 22A-B. The text has this: To confirm the dependence of cellular uptake on endocytosis, a RAFT polymerization was used to synthesize a fluorescent version of 50 kDa DMA-diABZI (36) in which a small amount of azide propyl methacrylamide (2%) was co-polymerized to allow for covalent conjugation to DBCO-Sulfo-Cy5 dye, yielding compound (37), which had 2 Sulfo-Cy5 molecules per chain. […] Therefore, DMA-diABZI appears to cells via endocytosis where it can activate STING signaling within ˜2 hr.

Like-named read-outs stand apart in the source and are kept apart here.

T1 sequence (Q86WV6 whole entry R71H/G230A/H232R/R293Q): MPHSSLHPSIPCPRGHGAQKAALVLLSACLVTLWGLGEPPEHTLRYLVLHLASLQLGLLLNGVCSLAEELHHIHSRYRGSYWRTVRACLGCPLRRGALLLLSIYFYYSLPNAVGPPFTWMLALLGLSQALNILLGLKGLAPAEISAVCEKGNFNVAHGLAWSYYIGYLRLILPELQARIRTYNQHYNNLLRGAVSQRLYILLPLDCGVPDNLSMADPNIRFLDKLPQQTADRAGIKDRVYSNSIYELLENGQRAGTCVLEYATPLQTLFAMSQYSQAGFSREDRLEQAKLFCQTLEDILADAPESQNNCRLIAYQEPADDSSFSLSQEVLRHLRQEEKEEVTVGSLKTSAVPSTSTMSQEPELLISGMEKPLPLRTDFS

Turning to `CCSC(=S)SC(C)(C#N)CCC(=O)NCCCOc1cc(C(N)=O)cc2nc(NC(=O)c3cc(C)nn3CC)n(C/C=C/Cn3c(NC(=O)c4cc(C)nn4CC)nc4cc(C(N)=O)cc(OC)c43)c12` (centres unmarked) [diABZI-ECT (10), diABZI-ECT], the EC50 in test [1] (FIG. 5, IRF signaling at 24 hours, read-out: EC50, STING activation in THP-1 Dual reporter cell lines) was 3.06 nM; in test [1] (Table 2, FIG. 18A, IRF signaling in THP-1 Dual reporter cells, read-out: EC50 value) it was 7.21 nM. Besides, the “STING activation / interferon production in THP-1 Dual reporter cells, in words” value in test [1] is reported as “significantly more potent than diABZI-amine (1)”; in test [1] (listed as 10) it was “nearly identical STING activation”. The “IRF and NF-κβ responses in STING knockout cells” value in test [2] was “lack of activity”. The “IRF and NF-kb pathway activation” value in test [3] is reported as “both signaling pathways are engaged”.

In the case of “diABZI(CTA)-DMA-50k [50 kDa diABZI-DMA (33)]”, the “IRF and NF-κβ responses in STING knockout cells” value in test [2] is “lack of activity”. Also, in test [3], the “IRF and NF-kb pathway activation” value was “both signaling pathways are engaged”. For the same compound, the “STING activation dynamics (STING-puncta, confocal)” value in test [4] is “delayed STING activation”. Further, the “time to activation of STING signaling after endocytosis” value in test [5] is not above 2 h.

On to “diABZI-DMA-co-AzPMA-Sulfo-Cy5 [sCy5-labeled DMA-diABZI (37)]”, for which, in test [6], the “cellular uptake at 4° C. versus 37° C.” value was “nearly completely abrogated”.
